In ChEMBL document CHEMBL1132466, “Asymmetric synthesis of 9-alkyl-2-benzyl-6,7-benzomorphans: characterization as novel sigma receptor ligands” (J Med Chem, 1999):

Test: Affinity against Sigma opioid receptor type 1 using [3H](+)-pentazocine in guinea pig brain membranes

Structure (SMILES): C[C@@H]1[C@@H]2Cc3ccc(O)cc3[C@@]1(C)CCN2Cc1ccccc1
- Ki: 0.67 nM
